Measured values taken from patent publication US20100048498A1, “STABLE NON-DIHYDRATE AZITHROMYCIN ORAL SUSPENSIONS” (priority 2004, published 2010).

Legend:
[1] = Effect of individual flavorings and sucrose on conversion of azithromycin form G to form A in pH 8.16 buffer; assay type: physicochemical; design: key: AC means all converted to form A; conditions: 18 mls pH 8.16 buffer, room temperature
Protocol: To evaluate a proposed excipient, the active dose of the azithromycin was suspended with the desired amount of potential excipient in a 0.1 M phosphate buffer system adjusted to a pH of 8.16. The buffer system was created by dissolving 13.738 g of NaH2PO4.H2O in 900 ml of water, adjusting the pH to 8.16 with sodium hydroxide, and diluting the solution to 1 liter with water. The sample, once constituted with buffer, was then stored at room temperature for the desired constituted product shelf-life. The azithromycin product was then isolated through filtration, and the resulting solid filtrate analyzed by a Solid-State Nuclear Magnetic Resonance method described previously that allows for quantitation of the dihydrate form present.
The effect of various individual flavoring components and of sucrose upon conversion of azithromycin form G to azithromycin dihydrate (form A), in suspensions, were evaluated as follows.
An 820 mg dose of form G azithromycin was weighed and mixed with 200 mg of each flavoring or sucrose. The mass of each flavoring, used in this test, was chosen to match that of the anticipated required amount for effective flavoring in the constituted POS. In this example, five flavorings, specifically artificial crème de vanilla, B&C banana, Trusil banana, Trusil cherry and artificial grape were investigated in addition to sucrose. Each of the binary samples were then constituted with 18 mls of pH=8.16 buffer and stored for 1, 5 and 10-days at room temperature.
A control suspension of azithromycin form G constituted with 18 mls of pH=8.16 buffer was run with each series of experiments using the same storage conditions. Upon completion of the constituted storage time period these samples were filtered to isolate drug product and analyzed using the SS-NMR method to quantify the amount of azithromycin dihydrate present.

[2] = Stability of non-dihydrate azithromycin in suspension (POS formulation II or bulk drug in water); SS-NMR quantification of form A; assay type: physicochemical
Protocol: The stability of various forms of non-dihydrate azithromycin, in water and in flavored oral suspensions, was evaluated. Specifically, non-dihydrate azithromycin forms G, M, N, F and J were separately used in POS formulation II. These POS formulations were constituted by mixing with 18 mls of water. The suspensions were then stored for 1, 5 and 10 days at either 5° C. or 30° C. Suspensions of bulk azithromycin forms G, M, N, F and J were also constituted with 18 mls of water and stored under the same conditions.
Upon conclusion of the storage time period the suspensions were filtered and suspended solids collected as described previously.

Δ % Form A ([1]; 820 mg form G + 200 mg Artificial Crème de Vanilla Flavor, constituted 1 day, listed as form G, sesquihydrate): did not exhibit conversion
Δ % Form A ([1]; 820 mg form G + 200 mg Artificial Crème de Vanilla Flavor, constituted 1 day, sesquihydrate): 0%
Δ % Form A ([1]; 820 mg form G + 200 mg Artificial Crème de Vanilla Flavor, constituted 5 days): 4%
Δ % Form A ([1]; 820 mg form G + 200 mg Artificial Crème de Vanilla Flavor, constituted 10 days): 30%
Δ % Form A ([1]; 820 mg form G + 200 mg Artificial Grape Flavor, constituted 1 day): 57%
Δ % Form A ([1]; 820 mg form G + 200 mg Artificial Grape Flavor, constituted 5 days): 75%
Δ % Form A ([1]; 820 mg form G + 200 mg Artificial Grape Flavor, constituted 10 days): AC
Δ % Form A ([1]; 820 mg form G + 200 mg B&C Banana Flavor, constituted 1 day, listed as form G, sesquihydrate): did not exhibit conversion
Δ % Form A ([1]; 820 mg form G + 200 mg B&C Banana Flavor, constituted 1 day, sesquihydrate): 0%
Δ % Form A ([1]; 820 mg form G + 200 mg B&C Banana Flavor, constituted 5 days): 27%
Δ % Form A ([1]; 820 mg form G + 200 mg B&C Banana Flavor, constituted 10 days): AC
Δ % Form A ([1]; 820 mg form G + 200 mg Sucrose, constituted 1 day): 2%
Δ % Form A ([1]; 820 mg form G + 200 mg Sucrose, constituted 5 days): 1%
Δ % Form A ([1]; 820 mg form G + 200 mg Sucrose, constituted 10 days, listed as form G, sesquihydrate): only minimal conversion
Δ % Form A ([1]; 820 mg form G + 200 mg Sucrose, constituted 10 days, sesquihydrate): 6%
Δ % Form A ([1]; 820 mg form G + 200 mg Trusil Banana Flavor, constituted 1 day): 32%
Δ % Form A ([1]; 820 mg form G + 200 mg Trusil Banana Flavor, constituted 5 days): 57%
Δ % Form A ([1]; 820 mg form G + 200 mg Trusil Banana Flavor, constituted 10 days): AC
Δ % Form A ([1]; 820 mg form G + 200 mg Trusil Cherry Flavor, constituted 1 day): 32%
Δ % Form A ([1]; 820 mg form G + 200 mg Trusil Cherry Flavor, constituted 5 days): 75%
Δ % Form A ([1]; 820 mg form G + 200 mg Trusil Cherry Flavor, constituted 10 days): AC
% A (azithromycin dihydrate, form A, of recovered azithromycin) ([2]; Bulk Drug in 18 mls water, 5° C., Day 1): 1%
% A (azithromycin dihydrate, form A, of recovered azithromycin) ([2]; Bulk Drug in 18 mls water, 5° C., Day 5): 6%
% A (azithromycin dihydrate, form A, of recovered azithromycin) ([2]; Bulk Drug in 18 mls water, 5° C., Day 10): 12%
% A (azithromycin dihydrate, form A, of recovered azithromycin) ([2]; Bulk Drug in 18 mls water, 30° C., Day 1): 3%
% A (azithromycin dihydrate, form A, of recovered azithromycin) ([2]; Bulk Drug in 18 mls water, 30° C., Day 5): 26%
% A (azithromycin dihydrate, form A, of recovered azithromycin) ([2]; Bulk Drug in 18 mls water, 30° C., Day 10): 73%
% A (azithromycin dihydrate, form A, of recovered azithromycin) ([2]; Formulation II constituted with 18 mls water, 5° C., Day 1): 72%
% A (azithromycin dihydrate, form A, of recovered azithromycin) ([2]; Formulation II constituted with 18 mls water, 5° C., Day 5): 75%
% A (azithromycin dihydrate, form A, of recovered azithromycin) ([2]; Formulation II constituted with 18 mls water, 5° C., Day 10): 78%
% A (azithromycin dihydrate, form A, of recovered azithromycin) ([2]; Formulation II constituted with 18 mls water, 30° C., Day 1): 82%
% A (azithromycin dihydrate, form A, of recovered azithromycin) ([2]; Formulation II constituted with 18 mls water, 30° C., Day 5): 74%
% A (azithromycin dihydrate, form A, of recovered azithromycin) ([2]; Formulation II constituted with 18 mls water, 30° C., Day 10): 76%
SMILES: CC[C@H]1OC(=O)[C@H](C)[C@@H](O[C@H]2C[C@@](C)(OC)[C@@H](O)[C@H](C)O2)[C@H](C)[C@@H](O[C@@H]2O[C@H](C)C[C@H](N(C)C)[C@H]2O)[C@](C)(O)C[C@@H](C)CN(C)[C@H](C)[C@@H](O)[C@]1(C)O [Form G, azithromycin sesquihydrate]
